Holding throughout (assay type): biochemical
For data set [1], the system named is Invitrogen Low Mass ladder. The data set can be described thus: Exonuclease activity assay. The conditions noted are these: 2, 4 or 10 μg enzyme, 16 hours at 37° C., visual assessment of ladder bands. How it is done:
An assay comparing the endogenous exonuclease activity of a reference polymerase, T7 DNA polymerase, with the exonuclease activity of a polymerase comprising the amino acid of SEQ ID NO: 7, was performed. Exonuclease activity was measured by incubating 2, 4 or 10 μg of each enzyme sample with 7.5 μL Invitrogen Low Mass ladder, (10068-013) in a 50 μL reaction containing 10 mM Tris, pH 7.5, 50 mM NaCl and 10 mM MgCl2 for 16 hours at 37° C. in an ABI 9700 PCR machine. The samples were resolved via electrophoresis on a 1.2% E-Gel (Life Technologies). The extent of exonuclease activity was estimated by visually assessing the disappearance of the bands of the Low Mass ladder, as compared to negative control reactions, to which water (“W”) or enzyme storage buffer (“SB”) was added instead of purified polymerase).

Data set [2] concerns AF647-C6-dG6P in [enzyme.DNA.nucleotide] ternary complex with dideoxy-primer/template duplex. In words: Stopped-flow measurement of t−1 (nucleotide dissociation from ternary complex). More on the design: unit not given here. The following applies: t−1 = 1/k−1; ternary complex with 7 μM AF647-C6-dG6P chased with 50 μM non-labeled nucleotide, 2 mM MnCl2. How it is done:
Stopped-Flow Measurements of t−1
The stopped-flow techniques for measuring t−1 ([…]) followed the techniques described by M. Bakhtina (2009 Biochemistry 48:3197-3208).
The rate of the nucleotide dissociation ([…]) from the ternary complex of [enzyme.DNA.nucleotide] was measured in an Applied Photophysics SX20 stopped-flow spectrometer by monitoring changes […] a duplex Alexa fluor 546 dye-labeled-DNA template following the mixing of the [enzyme.DNA.labeled nucleotide] ternary complex with 50 μM cognate non-labeled deoxynucleoside triphosphate in a buffer containing 50 mM Tris-HCl (pH 7.5), 50 mM NaCl, 4 mM DTT, 0.2% BSA, and 2 mM MnCl2.
The ternary complexes were prepared using: 330 nM polymerase, 100 nM template/primer duplex, and 7 μM terminal phosphate-labeled nucleotides (AF647-C6-dG6P).
The averaged stopped-flow fluorescence traces (>1.5 msec) were fitted with a single exponential equation (2) to extrapolate the rate of the nucleotide dissociation (k−1) from the [enzyme.DNA.nucleotide] ternary complex. Fluorescence=A1*e^−k−1*t+C (equation 2) where A1 represents the corresponding fluorescence amplitude, C is an offset constant, and k−1 and the observed rate constants for the fluorescence transition.

Data set [3] has as its system AF647-C6-dG6P and Alexa Fluor 546 dye-labeled primer-template duplex. The data set can be described thus: Stopped-flow measurement of tpol (nucleotide incorporation kinetics). The conditions noted are these: tpol = 1/kpol; 7 μM AF647-C6-dG6P, 330 nM polymerase, 100 nM template/primer duplex, 2 mM MnCl2. Also on record: unit not given here. The protocol: In this example, the t−1 and tpol values of a Phi-29 polymerase comprising the amino acid sequence of SEQ ID NO: 1 and a modified B103 polymerase comprising the amino acid sequence of SEQ ID NO: 8 (referred to as “mB103 in the table below) and further including amino acid substitutions at various positions were measured using a stopped-flow procedure. The stopped-flow techniques for measuring tpol (1/kpol) followed the techniques described by MP Roettger (2008 Biochemistry 47:9718-9727; M. Bakhtina 2009 Biochemistry 48:3197-320).
Stopped-Flow Measurements of tpol
The template sequence (SEQ ID NO: 44) further included an Alexa Fluor 546 dye moiety bonded to the 5′ position of the template.
The kinetics of nucleotide incorporation by each polymerase was measured in an Applied Photophysics SX20 stopped-flow spectrometer by monitoring changes in fluorescence from the dye-labeled primer-template duplex complexed to enzyme, following the mixing of the enzyme-DNA complex with dye-labeled nucleotides. These dye-labeled nucleotides comprise terminal-phosphate-labeled nucleotides having an alkyl linker with a functional amine group attached to the dye, and have the general structure shown in FIG. 11. This structure includes a sugar bonded to a hexaphosphate chain at the 5′ carbon position, and to a nucleotide base (denoted as “N”). The terminal phosphate group of the hexaphosphate is linked to a 6-carbon linker, and the other end of the 6-carbon linker is attached to a dye moiety (denoted as “dye”), typically through an amide bond. In this example, the particular dye-labeled nucleotide added was a labeled nucleotide hexaphosphate comprising a guanine base at the N (base) position and an Alexa Fluor 647 (AF647) at the dye position, and is referred to herein as “AF647-C6-dG6P”.
The primer and template were annealed to form a dye-labeled primer-template duplex using standard methods. This duplex was preincubated with polymerase. The mixture included 330 nM recombinant DNA polymerase, 100 nM template/primer duplex in buffer (“reaction buffer”) comprising 50 mM Tris-HCl, pH 7.5, 50 mM NaCl, 4 mM DTT, 0.2% BSA, and 2 mM MnCl2. The dye-labeled nucleotide AF647-C6-dG6P was then added to a final concentration of 7 μM, and the resulting fluorescence was monitored over time.
The averaged (5 traces) stopped-flow fluorescence traces (>1.5 ms) were fitted with a double exponential equation (1) to extrapolate the rates of the nucleotide binding and product release, Fluorescence=A1*e^−k1*t+A2*e^−kpol*t+C (equation 1) where A1 and A2 represent corresponding fluorescence amplitudes, C is an offset constant, and k1 and kpol are the observed rate constants for the fast and slow phases of the fluorescence transition, respectively.

Data set [4] deals with hairpin-template, test nanoparticle. The data set can be described thus: Nanoparticle tolerance assay (primer extension with and without test nanoparticle). The conditions noted are these: 100 nM polymerase, 100 nM nanoparticle, 23° C. How it is done: The nanoparticle tolerance of exemplary modified and reference polymerases was measured and compared. The nucleotide incorporation activity of an exemplary modified polymerase comprising the amino acid sequence of SEQ ID NO: 19 and further comprising the amino acid substitution D175A was measured both in the absence and presence of equimolar amounts of a test nanoparticle. The results were compared to those of an exemplary reference Phi-29 polymerase comprising the amino acid sequence of SEQ ID NO: 20.
Primer extension activity was measured using an assay wherein free pyrophosphate released as a result of extension of a primer:template duplex is detected as a fluorescent product. […] The resulting fluorescence emissions were monitored as a function of time using a plate reader (Molecular Devices, SpectraMax M5). Reactions without nucleotides were also monitored as negative controls. Reactions were monitored for 20 minutes or until the samples reached saturation.
Exemplary results are depicted in FIG. 5, which provides a graph of relative fluorescence observed in each sample (RFU, arbitrary units, Y axis) against time (seconds, X axis). […] Primer extension activity was measured as the average slope of the curve obtained by plotting fluorescence (RFU) vs. time (seconds, X axis) between the zero time point and at 5 minutes. […]

Consider “SEQ ID NO: 7: B103 polymerase variant with substitutions F383L and D384N”, for which the exonuclease activity result in data set [1] is “comparable levels of exonuclease activity”.

“T7 DNA polymerase: reference polymerase, positive control for exonuclease activity [reference compound]”: the exonuclease activity entry in data set [1] is recorded as “comparable levels of exonuclease activity”.

As to “mB103 + D507G: modified B103 polymerase of SEQ ID NO: 8 with substitution D507G”, the “t−1” value in data set [2] turned out to be 13. The substance further gave a tpol in data set [3] of 11.

Regarding “mB103 + D507H: modified B103 polymerase of SEQ ID NO: 8 with substitution D507H”, in data set [2], the “t−1” value was determined as 16. In data set [3], the tpol was 7.

For the substance “mB103 + E371R: modified B103 polymerase of SEQ ID NO: 8 with substitution E371R”, the “t−1” value in data set [2] amounted to 17. In addition, the tpol in data set [3] was 11.

As for “mB103 + E371Y: modified B103 polymerase of SEQ ID NO: 8 with substitution E371Y”, the “t−1” value in data set [2] stood at 7. In addition, in data set [3], the tpol is listed as 11.

“mB103 + H370R: modified B103 polymerase of SEQ ID NO: 8 with substitution H370R”: in data set [2], the “t−1” value was 43. This substance also displayed a tpol in data set [3] of 17.

As for “mB103 + H370Y: modified B103 polymerase of SEQ ID NO: 8 with substitution H370Y”, the “t−1” value in data set [2] is given as 12. In addition, the tpol in data set [3] amounted to 15.

“mB103 + K509Y: modified B103 polymerase of SEQ ID NO: 8 with substitution K509Y”: in data set [2], the “t−1” value turned out to be 20. Besides, the tpol in data set [3] is 10.

As to “reference Phi-29 polymerase: reference Phi-29 polymerase of Example 5; SEQ ID NO: 20 or SEQ ID NO: 1 with N62D [reference compound]”, the nanoparticle tolerance in data set [4] worked out at 50%. Also, the “loss in primer extension activity in the presence of equimolar amounts of the test nanoparticle” value in data set [4] (slope zero to 5 minutes) is 50%.
